In PubChem BioAssay AID1053144 (Broad Institute, 2014):

System: NPC TCF/LEF luciferase reporter, Wnt3a EC25, 24 h
Assay: TCF/LEF reporter activation in neural progenitors – cell-based, iPS-derived NPC, luciferase, Wnt3a, cherry-pick, dose response (AID 1053144);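 further: Wnt3a stimulus is conditioned medium from Wnt3a-transfected mouse L cells at 5% in well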

Compound | AC30 [µM]
CCC(=O)NC1=C(Nc2ccc(N)cc2)C(=O)c2ccccc2C1=O | 5.42
CCNc1nc(N)c(C(=O)c2ccc(Cl)s2)s1 | 11.3
CCC(=O)Nc1sc(C(=O)Nc2ccccc2)c(C)c1C(=O)OC | 9.81
O=C(NC1CCCC1)c1cc(-c2ccccc2)on1 | 8.71
COC(=O)CCc1sc(Nc2ccccc2)nc1-c1ccc(OC)cc1 | 12.9
O=c1oc(CCO)cc2ccc(C#Cc3ccsc3)cc12 | 4.78
COc1ccc2[nH]c(=O)c(CNc3ccccc3C)cc2c1 | 17.3
CCc1ccccc1-n1c(SCC(=O)N2CCCC2)nnc1-c1ccccn1 | 8.48
Cc1ccccc1NC(=O)c1cc2ccccn2n1 | 4.78
Cn1c(CCNC(=O)c2ccco2)nc2cc(NC(=O)c3ccco3)ccc21 | 11.8
CC1(C)CC(=O)C2=C(C1)c1c(ccc3ccccc13)NC2c1ccco1 (stereo unspecified) | 14.8
CSc1ccccc1C(=O)Nc1ccc2c(c1)CCC2 | 3.13
O=C(c1ccc(-c2ccc(Cl)cc2Cl)o1)N1CCOCC1 | 8.53
O=Nc1c(-c2c(O)[nH]c3cc(Br)ccc23)[nH]c2ccccc12 | 0.942
Cc1cc(C)n(CCC(=O)N/N=C/c2ccc(Br)c([N+](=O)[O-])c2)n1 | 17.2
Oc1ccccc1-c1nnc(COc2ccc(Cl)cc2Cl)o1 | 10.5
Nc1ccc2nc(-c3ccccc3)cnc2c1 | 8.28
CC1CCc2c(C(=O)Nc3ccccn3)csc2C1 (stereo unspecified) | 4.65
O=C(/C=C\c1ccc(-c2ccccc2)o1)c1ccccc1 | 4.16
O=C(NCCc1ccccc1)c1cc(-c2ccco2)on1 | 10.7
Cc1cccc(NC(=O)c2ccccn2)c1C | 11.4
O=C(Nc1ccc(NC(=O)C2CCCCC2)nc1)c1cccs1 | 10.1
Clc1ccc(SCc2cn3ccsc3n2)cc1 | 8.8

Compound | AC30 [µM]
Cc1ccsc1/C=N\NC(=O)c1ccc2c(c1)OCO2 | 4.78
O=C(Nc1ncccc1O)c1ccc2c(c1)OCCO2 | 5.13
COc1ccc2c(c1)c(/C=N/Nc1nc3ccccc3[nH]1)c(C)n2C | 12.1
CC1=NN(c2ccccc2)C(=O)C1N=Nc1ccccc1 (stereo unspecified) | 4.78
Nc1ccc(-c2nc3cc([N+](=O)[O-])ccc3o2)cc1 | 4.78
c1ccc2c(c1)oc1c(Nc3ccc4c(c3)OCO4)ncnc12 | 4.78
O=C(O)c1ccc(N=Nc2c(O)[nH]c3cc(Cl)ccc23)cc1 | 4.78
Cc1ccc(Nc2ncccc2C(N)=O)cc1[N+](=O)[O-] | 5.42
CC1CC1C(=O)OCc1cc(=O)n2cc(Br)ccc2n1 (stereo unspecified) | 9.48
Cc1ccc(-n2ncc3c(Nc4cccc(C(=O)O)c4)ncnc32)cc1 | 4.78
COc1ccc(/C=N/Nc2ccccn2)cc1O | 11.6
O=C(CCCCCCC(=O)Nc1ccccc1)NO | 1.47
CCOC(=O)c1c(C)[nH]c(C(=O)COC(=O)C2(C)CC2(Cl)Cl)c1C (stereo unspecified) | 6.45
O=c1[nH]c(=O)n([C@H]2C[C@H](O)[C@@H](CO)O2)cc1Br | 13.2
CCc1cc2c(=O)[nH]c(-c3ccccn3)nc2s1 | 10.2
CCOc1ccc(CCNC(=O)/C=C/c2ccco2)cc1OCC | 13.5
COc1ccc(NC(=O)c2ccccc2NC(=O)C2CCCCC2C(=O)O)cc1 (stereo unspecified) | 19.3
N/C(=N\OC(=O)c1ccco1)c1ccc(Cl)cc1 | 11.8
CCCCOC(=O)Nc1ccc(C(=O)OC)cc1 | 11.7
COc1cc(/C=C/c2ccc3cccc(O)c3n2)cc(OC)c1OC | 13.7
Cc1ccc2nc(-c3ccc(NS(=O)(=O)c4ccc(F)cc4)cc3)sc2c1 | 4.78
O=C(NCCc1c[nH]c2ccccc12)c1cc2ccccc2oc1=O | 13.4
Cc1ccc2nc(-c3ccc(NS(=O)(=O)c4c(C)n(C)c(=O)n(C)c4=O)cc3)sc2c1 | 2.2

Compound | AC30 [µM]
COc1cccc(-c2csc(NC(=O)C3CC3)n2)c1 | 13.9
Nc1nc(-c2cc3ccccc3o2)cs1 | 4.78
Nc1ccc2nc3c(=O)n(C4CCCCC4)c(=O)[nH]c3nc2c1 | 10.5
COc1ccc(CCNC(=O)c2cc(-c3ccco3)on2)cc1OC | 11.4
c1ccc(-c2cc(-c3ccccc3)on2)cc1 | 4.78
O=c1cc(-c2cccs2)oc2ccc(Cl)cc12 | 5.83
CCc1ccccc1NC(=O)c1cccc(NC(=O)/C=C/c2ccco2)c1 | 13.2
O=C(COc1ccc(F)cc1Br)N1CCc2ccccc21 | 4.78
CCOc1cc(/C=N/NC(=O)N/N=C/c2ccc(O)c(OCC)c2)ccc1O | 13.1
COc1ccc2cc(-c3ccn[nH]3)ccc2c1 | 4.78
COc1ccc2sc(NC(=O)CC(C)C)nc2c1 | 13.4
COc1ccc(/C=C/c2ccncc2)cc1 | 11.1
O=C(Nc1nc2cc3c(cc2s1)OCCO3)c1ccc([N+](=O)[O-])o1 | 9.12
CNC(=O)c1ccsc1NC(=O)c1sc2ccccc2c1Cl | 12.4
Cc1ccc2oc(-c3cccc(NC(=O)c4ccccn4)c3)nc2c1 | 10.9
C=CCNC(=O)c1ccc2c3n(nc2c1)-c1ccc(Cl)cc1CO3 | 9.82
O=C(c1cc(-c2cccc(O)c2)on1)N1CCCCCC1 | 4.78
O=C(/C=C/c1ccccc1)c1c[nH]c2ccccc12 | 4.78
COCCNC(=O)c1ccc2c3n(nc2c1)-c1ccc(C)cc1CO3 | 10.7
O=C(Nc1ccccc1O)c1ccc(NS(=O)(=O)c2cccc3cccnc23)cc1 | 3.53
COc1cccc(-c2nnc(SCC(=O)N(C(C)C)C(C)C)o2)c1 | 20.7
O=[N+]([O-])c1cccc(-c2nnc(-c3ccccc3F)o2)c1 | 8.84
CCCc1cc(C(=O)Nc2cccc(C(C)=O)c2)no1 | 10.5

Compound | AC30 [µM]
Nc1ccccc1C(=O)/C=C/c1ccc2c(c1)OCO2 | 2.2
Cc1cc(-c2nc3ccccc3c(=O)o2)ccc1[N+](=O)[O-] | 16.2
COc1cc(C(=O)O/N=C2\C=CC(=O)C(C)=C2)cc(OC)c1OC | 16
CC(=O)N(C)c1ccc(NC(=O)c2ccco2)cc1 | 11.6
O=C(O)c1ccc2c(c1)C(=O)N(c1ccc(/C=C/C(=O)c3ccccc3)cc1)C2=O | 18.7
COc1ccccc1OCc1cc(C(=O)N(C)CCC2CCOCC2)no1 | 9.94
Cc1ccc2nc(-c3ccc(NC(=O)CSCC(=O)O)cc3)sc2c1 | 2.04
COc1ccc(C(=O)NC2=NCCS2)cc1 | 9.19
CSc1ccc(C(=O)/C=C/c2ccc(N)cc2)cc1 | 6.32
O=C(OCC(=O)c1ccc(Br)s1)c1ccc(O)cc1 | 15.8
Cc1ccc2cc(NC(=O)c3cccc(F)c3)ccc2n1 | 10.5
Nc1c2ccccc2nc2ccccc12 | 5.99
CCCNC(=O)c1oc2ccc3c(c2c1C)C=CC(C)(C)O3 | 8.63
O=C(Nc1ccc(Br)cn1)c1ccc(Br)s1 | 4.78
Cc1ccc(OCC(=O)Nc2ccccc2C(N)=O)cc1 | 7.04
O=C(Nn1cnc2ccccc2c1=O)c1c(F)cccc1F | 18.8
O=C(/C=C/c1ccco1)Nc1ccc2c(c1)OCO2 | 12.1
Nc1ccccc1NC(=O)c1ccccc1 | 8.77
O=c1c2cccc(Cl)c2nc2n1Cc1ccccc1-2 | 16.7
O=C(Nc1ccccc1O)c1ccc(NC(=O)C2CC2)cc1 | 5.37
O=C(Cc1nc2ccccc2[nH]1)c1ccc([N+](=O)[O-])cc1 | 7.12
Cc1ccc2cc(/C=C/C(=O)c3ccco3)c(Cl)nc2c1 | 16.8
O=C(NCCCn1ccnc1)c1cc(-c2ccccc2)on1 | 7.41

Compound | AC30 [µM]
Fc1ccc2nc3[nH]c4ccccc4c3nc2c1 | 8.76
CC(C)C1COC(c2cccc3ccccc23)=N1 (stereo unspecified) | 4.78
Cc1ccc(COc2ccc3c(c2)OCO3)cc1 | 17
O=C1Nc2ccccc2S/C1=C/c1cccs1 | 12.9
COc1ccc(-c2ccc3ccccc3n2)cc1OC | 9.49
O=[N+]([O-])c1ccccc1-c1nc(-c2ccc(Br)o2)no1 | 4.78
CCOCC(=O)Nc1nc2ccc(OCC)cc2s1 | 11.8
CCOC(=O)C(NC(=O)c1ccc(F)cc1)(Nc1sc2c(c1C(N)=O)CCC2)C(F)(F)F (stereo unspecified) | 16.3
Cc1ccc(C(=O)Nc2cccc(-c3ccc(N4CCOCC4)nn3)c2)cc1[N+](=O)[O-] | 9.12
COCCNC(=O)c1cc(-c2cccs2)on1 | 16.9
CCCC(=O)Nc1ccc(C(=O)COC(=O)C2CC2)cc1 | 5.63
Cc1oc(=O)c(NC(=O)c2cccc(Cl)c2)cc1C(=O)c1ccccc1 | 7.11
O=C(Nc1ccc2nc(-c3ccccc3)[nH]c2c1)c1ccco1 | 16.9
COc1ccc(C(=O)O/N=C(\N)c2ccc(Cl)cc2)cc1 | 9.22
O=C(NCCO)c1ccc2c3n(nc2c1)-c1ccc(Cl)cc1CO3 | 12.3
O=C(NCC1CCCO1)c1cc(-c2ccc(F)cc2)no1 (stereo unspecified) | 15.9
CCOC(=O)N1CCC(Nc2c(NCCCN3CCN(c4ccc(OC)cc4)CC3)c(=O)c2=O)CC1 | 19.5
Fc1ccccc1-c1nc(-c2ccncc2)no1 | 2.79
Cc1ccc(/C=N/Nc2nc3ccccc3[nH]2)s1 | 16.1
